Among the test systems are A549 NSCLC; HL-60(TB) leukemia; HOP-62 NSCLC; OVCAR-3 ovarian; RPMI-8226 leukemia; SK-MEL-2 melanoma; SK-OV-3 ovarian; TK-10 renal; U251 CNS; HOP-92 NSCLC.
Holding throughout (assay): inhibition of tumour cell growth, NCI panel, 48 h

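48-hour exposure; five concentrations; linearly interpolated endpoints. Here, GI50 denotes the concentration required for 50% inhibition of growth. TGI marks complete inhibition of growth.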

Data on 12 compounds can be found in PubChem BioAssay (NCI).

Regarding `CC1(C)N=C(N)N=C(N)N1c1cc(Cl)ccc1Cl`, the GI50 in the test with A549 NSCLC was above 100 µM; in the test on HL-60(TB) leukemia it was 74.7 µM; with HOP-62 NSCLC it was above 100 µM; in the test with OVCAR-3 ovarian, 53.1 µM; in the test with RPMI-8226 leukemia, above 100 µM; in the test with SK-MEL-2 melanoma it was above 100 µM. The GI50 with SK-OV-3 ovarian, in the test with TK-10 renal and in the test on U251 CNS was above 100 µM in each case. The TGI with A549 NSCLC, with HL-60(TB) leukemia, in the test on HOP-62 NSCLC, in the test with OVCAR-3 ovarian, with RPMI-8226 leukemia and in the test with SK-MEL-2 melanoma was above 100 µM in each case. Also, the TGI with SK-OV-3 ovarian, with TK-10 renal and in the test on U251 CNS was above 100 µM each time.
Regarding `O=C(Nc1ccc(Cl)cc1)c1cc2ccccc2cc1O`, the GI50 was 4.54 µM in the test on A549 NSCLC; 2.7 µM with HL-60(TB) leukemia; 3.34 µM in the test with HOP-62 NSCLC; 1.41 µM with HOP-92 NSCLC; 2.01 µM with OVCAR-3 ovarian; 2.87 µM with SK-MEL-2 melanoma. Further, the GI50 with SK-OV-3 ovarian was 1.91 µM; with TK-10 renal, 3.93 µM; in the test on U251 CNS, 2.54 µM. Besides, the TGI in the test with A549 NSCLC is above 100 µM; in the test with HL-60(TB) leukemia, 7.91 µM; in the test with HOP-62 NSCLC, above 100 µM; in the test with HOP-92 NSCLC, 7.77 µM; with OVCAR-3 ovarian it was 6.67 µM; with SK-MEL-2 melanoma it was 13.1 µM. For the same compound, the TGI in the test on SK-OV-3 ovarian is 9.61 µM; with TK-10 renal, above 100 µM; with U251 CNS, 29.5 µM.
As for `O=C(Oc1ccc(CCl)cc1)c1ccccc1`, the GI50 was 1.16 µM in the test with A549 NSCLC; 0.17 µM in the test on HOP-62 NSCLC; 0.173 µM in the test on HOP-92 NSCLC; 0.164 µM in the test on OVCAR-3 ovarian; 0.0615 µM in the test with RPMI-8226 leukemia; 0.175 µM in the test on SK-MEL-2 melanoma. The GI50 in the test on SK-OV-3 ovarian is 0.386 µM; with TK-10 renal it was 0.174 µM; in the test on U251 CNS, 0.138 µM. For the same compound, the TGI in the test on A549 NSCLC came to 2.42 µM; with HOP-62 NSCLC, 0.333 µM; in the test on HOP-92 NSCLC, 0.348 µM; in the test with OVCAR-3 ovarian, 0.304 µM; in the test with RPMI-8226 leukemia, 0.288 µM; with SK-MEL-2 melanoma, 0.358 µM. In addition, the figures for the TGI in the test with SK-OV-3 ovarian, in the test with TK-10 renal and in the test with U251 CNS were 1.42 µM, 0.33 µM and 0.268 µM, respectively.
Take `CCOC(=O)c1ccc(N2C(=O)/C(=C\OC)c3ccccc3C2=O)cc1`: the TGI with A549 NSCLC is above 100 µM; in the test with OVCAR-3 ovarian, above 100 µM; in the test with RPMI-8226 leukemia, above 100 µM; in the test with SK-MEL-2 melanoma, above 100 µM; in the test on SK-OV-3 ovarian it was 41.9 µM; in the test with TK-10 renal, above 100 µM. Moreover, the TGI with U251 CNS was above 100 µM.
In the case of `COC(=O)Nc1nc2ccccc2c(=O)[nH]1`, the TGI in the test on A549 NSCLC, with HL-60(TB) leukemia, in the test on HOP-62 NSCLC, in the test with OVCAR-3 ovarian, with SK-MEL-2 melanoma and in the test on SK-OV-3 ovarian was above 100 µM in each case. Besides, the TGI with TK-10 renal and with U251 CNS was above 100 µM in each case.
On to `CCOC(=O)CC1=CSC2=NCCN12`, for which the TGI in the test with A549 NSCLC, with HL-60(TB) leukemia, in the test with HOP-62 NSCLC, with HOP-92 NSCLC, in the test with OVCAR-3 ovarian and in the test with SK-MEL-2 melanoma was above 100 µM throughout. Besides, the TGI with SK-OV-3 ovarian, in the test on TK-10 renal and in the test on U251 CNS was above 100 µM throughout.
For `CC(=O)Nc1ccc(C2[C@H]3C(=O)N(c4ccc(Cc5ccc(N6C(=O)[C@@H]7ON(c8ccccc8)C(c8ccc(NC(C)=O)cc8)[C@@H]7C6=O)cc5)cc4)C(=O)[C@H]3ON2c2ccccc2)cc1` (some centres not stated), the TGI in the test on A549 NSCLC, with HL-60(TB) leukemia, in the test on HOP-62 NSCLC, in the test on OVCAR-3 ovarian, in the test on RPMI-8226 leukemia and in the test on SK-MEL-2 melanoma was above 100 µM each time. The TGI in the test with SK-OV-3 ovarian, with TK-10 renal and in the test with U251 CNS was above 100 µM in each case.
Regarding `c1ccc(N=C2c3ccccc3C3=NCCCN32)cc1`, the TGI in the test with A549 NSCLC was above 100 µM; in the test on HOP-62 NSCLC, above 100 µM; with HOP-92 NSCLC, 72.2 µM; in the test on OVCAR-3 ovarian it was above 100 µM; in the test on RPMI-8226 leukemia it was above 100 µM; in the test on SK-MEL-2 melanoma, above 100 µM. In addition, the TGI with TK-10 renal and with U251 CNS was above 100 µM throughout.
For `COC(=O)c1ccc(N=NN(C)CO)cc1`, the TGI in the test on A549 NSCLC, in the test with HL-60(TB) leukemia, in the test with HOP-62 NSCLC, in the test with OVCAR-3 ovarian, with RPMI-8226 leukemia and with SK-MEL-2 melanoma was above 100 µM throughout. Besides, the TGI with SK-OV-3 ovarian, with TK-10 renal and with U251 CNS was above 100 µM throughout.
In the case of `COc1ccc(-c2nc(-c3ccccc3)c(-c3ccccc3)n2C2CC2)cc1OC1CCCC1`, the GI50 with A549 NSCLC is 48.7 µM; in the test with HL-60(TB) leukemia it was 28.3 µM; with HOP-62 NSCLC, above 165 µM; in the test on OVCAR-3 ovarian, 102 µM; with RPMI-8226 leukemia, 48.8 µM; in the test on SK-MEL-2 melanoma, 105 µM. For the same compound, the GI50 with SK-OV-3 ovarian is above 165 µM; in the test with U251 CNS it was 30.2 µM. In addition, the TGI in the test on A549 NSCLC is above 165 µM; in the test on HL-60(TB) leukemia, 141 µM; in the test on HOP-62 NSCLC it was above 165 µM; in the test on OVCAR-3 ovarian it was above 165 µM; in the test with RPMI-8226 leukemia, above 165 µM; in the test with SK-MEL-2 melanoma, above 165 µM. Further, the TGI with SK-OV-3 ovarian and in the test on U251 CNS was above 165 µM throughout.
With `Cn1c(=O)c2[nH]c(CS(=O)(=O)Cc3nc4c([nH]3)c(=O)n(C)c(=O)n4C)nc2n(C)c1=O`, the TGI in the test with A549 NSCLC, with HL-60(TB) leukemia, with HOP-62 NSCLC, with OVCAR-3 ovarian, in the test with RPMI-8226 leukemia and in the test on SK-MEL-2 melanoma was above 100 µM each time. In addition, the TGI with SK-OV-3 ovarian, with TK-10 renal and in the test on U251 CNS was above 100 µM throughout.
Turning to `O=C(CCCn1ccnc1[N+](=O)[O-])NCCn1ccnc1`, the TGI in the test on A549 NSCLC, in the test on HL-60(TB) leukemia, in the test with HOP-62 NSCLC, with OVCAR-3 ovarian, in the test with SK-MEL-2 melanoma and in the test on SK-OV-3 ovarian was above 100 µM throughout. Besides, the TGI in the test with TK-10 renal and in the test on U251 CNS was above 100 µM throughout.
